Source: patent publication US7994185B2, “Benzene sulfonamide thiazole and oxazole compounds” (Glaxo Smith Kline LLC, priority 2008, dated 2011)
Where two headings read alike, the source gives them in different places.

What was measured:
[1] = tested on: SK-MEL-1; experiment: 3 day proliferation assay, B-Raf V600E mutant cancer cell line; type: cell-based; conditions: Homo sapiens; SK-MEL-1, Skin, BRAF V600E; read-out: Mean gIC50
[2] = tested on: MALME-3M; experiment: as above; type: cell-based; conditions: Homo sapiens, Skin, BRAF V600E, read-out: Mean gIC50
[3] = tested on: Human colon tumor cells (Colo205); experiment: Cell growth inhibition assay (CellTiter-Glo), Colo205; type: cell-based
Summary of the method: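 Read-out was CellTiter-Glo luminescence (total ATP as a cell-number surrogate), expressed as % inhibition against DMSO vehicle wells. Before that, cells grown in RPMI/10% FBS were treated for 3 days at 37 °C with ten 1:3-spaced compound concentrations, final DMSO 0.2%.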

[4] = tested on: GCT; experiment: 3 day proliferation assay, B-Raf V600E mutant cancer cell line; type: cell-based; conditions: Homo sapiens, Skin, BRAF V600E, read-out: Mean gIC50
[5] = tested on: UCLA-SO-M14; experiment: as above; type: cell-based; conditions: UCLA-SO-M14, Skin, BRAF V600E; read-out: Mean gIC50
[6] = tested on: Human melanoma cancer cells (SK-MEL-28); experiment: Cell growth inhibition assay (CellTiter-Glo), SK-MEL-28; type: cell-based
[7] = tested on: RKO; experiment: 3 day proliferation assay, B-Raf V600E mutant cancer cell line; type: cell-based; conditions: Homo sapiens, Colon, BRAF V600E, read-out: Mean gIC50
[8] = tested on: SK-MEL-3; experiment: as above; type: cell-based; conditions: Homo sapiens, SK-MEL3; SK-MEL-3, Skin, BRAF V600E; read-out: Mean gIC50
[9] = tested on: SK-MEL-28; experiment: as above; type: cell-based; conditions: Homo sapiens; SK-MEL-28, Skin, BRAF V600E; read-out: Mean gIC50
[10] = tested on: NCI-H292; experiment: as above; type: cell-based; conditions: Homo sapiens, NCI-H292, Lung, BRAF T119S, read-out: Mean gIC50
[11] = tested on: COLO 205; experiment: as above; type: cell-based; conditions: Homo sapiens; COLO 205, Colon, BRAF V600E; read-out: Mean gIC50
[12] = tested on: C32TG; experiment: as above; type: cell-based; conditions: Skin, BRAF V600E, read-out: Mean gIC50
[13] = tested on: A375P F11s; experiment: as above; type: cell-based; conditions: Skin, BRAF V600E, read-out: Mean gIC50
[14] = tested on: DU4475; experiment: as above; type: cell-based; conditions: Homo sapiens, DU-4475; DU4475, Breast, BRAF V600E; read-out: Mean gIC50
[15] = tested on: A375P F11s; experiment: Dose dependent tumor inhibition, A375P F11s xenograft; type: in vivo, athymic mice; parameters: key: −: indicates no response; +: indicates growth delay (1-2x doubling); ++: indicates growth delay (>2x doubling); +++: indicates stable disease; ++++: indicates partial regression; +++++: indicates complete regression; conditions: oral, 14-day period
Method: 1. […] Tumor cells (2×10^6 A375P F11s) were implanted subcutaneously into the right flank of athymic mice on Day 1. To facilitate their growth, A375P F11s cells were suspended in Matrigel diluted 1:1 in phosphate-buffered saline before implantation. When tumors had reached approximately 200 mm^3 in volume (Day 19-22), tumor-bearing mice were randomized into study groups (n=7 or 8). Animals were dosed orally once or twice daily for a 14-day period. […] Tumor growth was measured twice a week using calipers for the duration of the study. Tumor volumes were calculated as a product of (length×width×width)/2 and median values were used to compare groups. Complete regressions (CR) were defined as three consecutive tumor measurements of ≦13.5 mm^3. Partial regressions were defined as three consecutive measurements of ≦50% of starting tumor volume. Tumor growth delay was defined as the difference in time taken for treated and control groups to reach 1000 mm^3 (T-C1000).

[16] = tested on: A101D; experiment: 3 day proliferation assay, B-Raf V600E mutant cancer cell line; type: cell-based; conditions: Homo sapiens, Skin, BRAF V600E, read-out: Mean gIC50
[17] = tested on: WM115; experiment: as above; type: cell-based; conditions: Homo sapiens, WM-115, WM115, Skin, BRAF V600D, read-out: Mean gIC50
[18] = tested on: cancer cell lines encoding B-Raf V600E mutation; experiment: 3 day proliferation assay, panel of 22 mutant cancer cell lines; type: cell-based; conditions: number of cell lines of the panel
[19] = tested on: SH-4; experiment: 3 day proliferation assay, B-Raf V600E mutant cancer cell line; type: cell-based; conditions: Homo sapiens; SH-4, Skin, BRAF V600E; read-out: Mean gIC50
[20] = tested on: SW1417; experiment: as above; type: cell-based; conditions: Homo sapiens; SW1417, Colon, BRAF V600E; read-out: Mean gIC50
[21] = tested on: UACC-257; experiment: as above; type: cell-based; conditions: Homo sapiens; UACC-257, Skin, BRAF V600E; read-out: Mean gIC50
[22] = tested on: A673; experiment: as above; type: cell-based; conditions: Homo sapiens; A673, Muscle, BRAF V600E; read-out: Mean gIC50
[23] = tested on: HT-29; experiment: as above; type: cell-based; conditions: Homo sapiens, HT-29, Colon, BRAF T119S, read-out: Mean gIC50
[24] = tested on: SW872; experiment: as above; type: cell-based; conditions: Homo sapiens; SW872, Connective tissue, BRAF V600E; read-out: Mean gIC50
[25] = tested on: ES-2; experiment: as above; type: cell-based; conditions: Homo sapiens; ES-2, Ovary, BRAF V600E; read-out: Mean gIC50
[26] = tested on: UACC-62; experiment: as above; type: cell-based; conditions: Homo sapiens; UACC-62, Skin, BRAF V600E; read-out: Mean gIC50
[27] = tested on: A375P F11s; experiment: 3-day proliferation assays, selection of A375P F11s clone; type: cell-based, human; conditions: A375P F11s subclone of A375P
Method: Activity of select exemplified compounds was tested in vivo against A375 PF11s (melanoma cell line encoding a B-Raf V600E mutation) xenograft mouse model. The A375P F11s cell line, encoding a mutation for BRAF^V600E, was subcloned from the A375P human melanoma cell line (obtained from ATCC, Cat # CRL-1619) by limiting dilution and selected based on high (90%) sensitivity to the BRAF inhibitor, SB-590885 (commercially available), in 3-day proliferation assays. The selected clone (A375P F11s) was isolated and mutation in B-Raf (T1799A) encoding the V600E amino acid change was reconfirmed.

[28] = tested on: pERK (pERK/tERK); experiment: Pharmacodynamic effect, pERK/tERK in A375P F11s xenograft tumors; type: in vivo, mice; conditions: Mus musculus; A375P F11s xenograft tumors, single oral dose of 100 mg/kg, 2 h after administration; read-out: inhibition of pERK (pERK/tERK)
Method: Animals were housed in pathogen free conditions and handled with aseptic technique. […] Detached cells were collected, centrifuged (1500 rpm, 5 min, 4° C.) and rinsed to remove the trypsin solution. Cells were resuspended in PBS without magnesium or calcium and counted. Cells were spun as previously to remove PBS and a single cell suspension was created either in 50% Matrigel: 50% PBS (v:v) or 100% PBS so that a 100 μL subcutaneous injection would deliver the required number of cells per mouse. The A375P F11s melanoma line was injected with Matrigel at 4 million cells per mouse. Tumors were established (˜150-300 mm^3) for all cell lines within 2-4 weeks post-injection.
At 2 h following oral administration of compound mice were euthanized using carbon dioxide. Tumors were carefully excised, homogenized using Medimachine (BD Bioscience) with 1 ml of lysis buffer (25 mM Tris-HCl (pH 7.5), 2 mM EDTA (pH 8.0), 2 mM EGTA (pH 8.0), 1% Triton X-100, 0.1% SDS, 50 mM Na—B—PO4, 2 mM NaVO4, 4 mM Na-Pyr-PO4, 2× phosphatase inhibitor cocktail. Crude homogenate was transferred to a 12 ml polypropylene tube containing 1.5 ml of lysis buffer and kept on ice. Following homogenization of all samples, 1 ml of homogenate was transferred to an eppendorf tube and centrifuged at 14,000 rpm for 15 min at 4° C. Five hundred microliter of clarified lysate was transferred to a new tube, flash frozen and processed for quantitation of pERK and tERK using western blot or Elisa (MSD) assays. […] BioRad dye was added to BSA dilutions and diluted test lysates. […] Comparison to the standard curve provides a relative measurement of protein concentration. […] The gels were transferred onto nitro-cellulose membranes using the iBlot transfer apparatus, which were then blocked and incubated with different primary antibodies overnight at 4° C. Western blots dually probed against pERK and tERK were scanned using LI-COR Odyssey® reader. A ratio of the immunofluorescent density obtained for pERK/tERK is calculated and expressed as a ratio (in percentage) to control untreated samples. For determination of pERK/tERK ratio by ELISA, MesoScale Discovery (MSD) (cat# K15107) plate were used according to manufacturer's instructions. In brief, MSD plates were block with 150 μl/well of blocking buffer for 1 hr before being washed 4 times with 200 μl of washing buffer. Thirty microliter (30 μl) of serially diluted samples was added to wells and plates were incubated overnight at 4° C. under slow agitation (˜500 rpm). Plates were washed 4 times in 200 μl 1× Tris wash buffer and 25 μl detection antibody solution was added to all wells and incubated at room temperature for 1 hr (˜500 rpm). Plates were washed 4 times in 200 μl wash buffer and 150 μl of read buffer was added to all wells. Plates were read on MSD.SI6000. In this assay vehicle and compound treated samples were tested at 4 different dilutions to allow linear range coverage of the assay. From pERK and tERK signal, background (BSA signal) was subtracted and ratio of pERK/tERK determined and normalized to untreated vehicle samples, arbitrarily set at 100%.

[29] = target: T1, BRAFV600E full-length (amino acids 2-766) (Homo sapiens, UniProt P15056, V600E); experiment: B-Raf Accelerated MEK ATPase assay (BRAMA); type: biochemical; conditions: categorized
T1 construct: His6-tagged BRAFV600E full-length (amino acids 2-766); His6; made in house; host or cells: baculovirus expression system (insect cells)
T1 sequence (P15056 2-766 V600E): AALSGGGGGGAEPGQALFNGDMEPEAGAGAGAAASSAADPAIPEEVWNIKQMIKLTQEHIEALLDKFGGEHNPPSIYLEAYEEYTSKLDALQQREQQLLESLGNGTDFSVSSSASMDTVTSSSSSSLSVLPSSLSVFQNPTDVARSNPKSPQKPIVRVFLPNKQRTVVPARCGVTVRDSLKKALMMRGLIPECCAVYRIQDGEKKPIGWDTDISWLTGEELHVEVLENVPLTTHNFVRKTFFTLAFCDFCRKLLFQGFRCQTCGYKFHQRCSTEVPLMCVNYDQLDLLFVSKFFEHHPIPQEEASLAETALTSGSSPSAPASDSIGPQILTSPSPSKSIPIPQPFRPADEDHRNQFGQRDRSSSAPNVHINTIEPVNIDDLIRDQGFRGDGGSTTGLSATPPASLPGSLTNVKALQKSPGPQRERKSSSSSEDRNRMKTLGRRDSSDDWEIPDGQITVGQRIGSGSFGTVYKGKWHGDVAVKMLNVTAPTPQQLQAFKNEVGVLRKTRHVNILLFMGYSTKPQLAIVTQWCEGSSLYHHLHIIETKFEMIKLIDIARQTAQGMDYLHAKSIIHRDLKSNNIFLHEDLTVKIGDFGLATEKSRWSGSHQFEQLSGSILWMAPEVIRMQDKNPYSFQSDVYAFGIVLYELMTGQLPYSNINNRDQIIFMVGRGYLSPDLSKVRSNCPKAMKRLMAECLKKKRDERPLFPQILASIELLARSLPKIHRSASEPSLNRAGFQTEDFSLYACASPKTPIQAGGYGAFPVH
Summary of the method: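 Coupled-enzyme readout: ADP generated by MEK-mediated ATP hydrolysis, uncoupled from ERK phosphorylation, is linked to NADH oxidation through pyruvate kinase and lactate dehydrogenase.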

[30] = COLO 205, Table 2b, later runs, average for the one or more runs, categorized, read-out: IC50 for Colo205
[31] = SK-MEL-28, Table 3b, later runs, average for the one or more runs, categorized, read-out: IC50 for SK-MEL-28

SMILES: CC(C)(C)c1nc(-c2cccc(NS(=O)(=O)c3c(F)cccc3F)c2F)c(-c2ccnc(N)n2)s1 [Example 58a, N-{3-[5-(2-Amino-4-pyrimidinyl)-2-(1,1-dimethylethyl)-1,3-thiazol-4-yl]-2-fluorophenyl}-2,6-difluorobenzenesulfonamide]
- IC50 [1]: < 0.1 µM
- IC50 [2]: < 0.1 µM
- IC50 [3, 30]: < 0.1 µM
- IC50 [4]: ≥ 1 µM
- IC50 [5]: < 0.1 µM
- IC50 [6, 31]: < 0.1 µM
- IC50 [7]: ≥ 1 µM
- IC50 [8]: < 0.1 µM
- IC50 [9]: < 0.1 µM
- IC50 [10]: ≥ 1 µM
- IC50 [11]: < 0.1 µM
- IC50 [12]: < 0.1 µM
- IC50 [13]: < 0.1 µM
- IC50 [14]: < 0.1 µM
- Response ([15]; 0.1 mg/kg qd): −
- Response ([15]; 1 mg/kg qd): + (indicates growth delay (1-2x doubling))
- IC50 [16]: < 0.1 µM
- IC50 [17]: < 0.1 µM
- cancer cell lines encoding B-Raf V600E sensitive with gIC50<100 nM [18]: 16 out of 22
- cancer cell lines not sensitive (gIC50>1000M) [18]: 4 out of 22
- cancer cell lines with intermediate response (gIC50≧100 nM and <1000 nM) [18]: 2 out of 22
- IC50 [19]: < 0.1 µM
- IC50 [20]: 0.1 to 1 µM
- IC50 [21]: < 0.1 µM
- IC50 [22]: ≥ 1 µM
- IC50 [23]: < 0.1 µM
- IC50 [24]: 0.1 to 1 µM
- IC50 [25]: < 0.1 µM
- IC50 [26]: < 0.1 µM

SMILES: CN(C)CCOc1ccc(-c2nc(-c3ccncc3)c(-c3ccc4c(c3)CC/C4=N\O)[nH]2)cc1 [SB-590885]
- sensitivity to the BRAF inhibitor in 3-day proliferation assays [27]: 90%

SMILES: Nc1nccc(-c2sc(N3CCOCC3)nc2-c2cccc(NS(=O)(=O)c3cc(F)ccc3F)c2Cl)n1 [Example 156]
- IC50 ([3]; COLO 205, 72 h, Table 2a, 3 days incubation, read-out: Activity in Colo205 Tumor Cells): < 0.1 µM
- IC50 [3, 30]: < 0.1 µM
- IC50 ([6]; SK-MEL-28, 72 h, Table 3a, 3 days incubation, read-out: Activity in SK-MEL-28 Tumor Cells): < 0.1 µM
- IC50 [6, 31]: < 0.1 µM
- inhibition at 100 mg/kg [28]: ≥ 30%
- IC50 ([29]; B-Raf Activity, Table 1a, highest pIC50 for the one or more runs): < 0.1 µM
- IC50 ([29]; B-Raf pIC50, Table 1b, later runs, average pIC50 for the one or more runs): ≤ 0.00316 µM
